Laboratory results published in publication PMC7413254 (Nature Communications, 2020).
Where two headings read alike, the source gives them in different places.

How the values were obtained:
non-expressing oocytes [1] = assay type: cell-based, Xenopus laevis; details: total [3H]CQ transport; for Uptake of [3H]CQ (% non-expressing oocyte control), trans-stimulation: non-expressing oocytes, normalised to the oocyte type control; for Uptake of [3H]CQ (% PfCRTDd2 control), trans-stimulation, non-expressing oocytes: mean ± SEM, SEM
Procedure, shortened: (§1)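 Oocytes (ten per treatment, ≥4 independent frogs/days) were preloaded by injecting VF-6 in 25 nL ND96 at pH 5.0, 5.5, 6.0 or 7.0, or Na^+-free choline buffer, then uptake run 1.5 h, 27.5 °C, ND96 pH 5.5 by default. Internal concentrations assumed ~400 nL oocyte volume.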

PfCRT [2] = assay: Test of solutes as potential co-substrates for influx of VF-6 via PfCRT into the oocyte; assay type: cell-based, Plasmodium falciparum; design: key: X: Compounds that have been tested as potential co-substrates but are not required for influx of VF-6 via PfCRT into the oocyte; details: X = tested
PfCRT^Ecu1110 [3] = biological target: T1, PfCRT^Ecu1110 (Plasmodium falciparum, UniProt Q9N623, A220S/I356L/K76T/N326D); assay: [3H]CQ uptake into Xenopus oocytes, cis-inhibition by unlabelled solute; assay type: cell-based
Procedure, shortened: (§2)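 Inward transport into oocyte cytosol from pH 5.5 medium models PfCRT efflux from the acidic digestive vacuole. Incubation 1.5 h, 27.5 °C; termination by ice-cold washes; lysate radioactivity counted.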

PfCRT^Dd2 [4] = biological target: T2, PfCRT^Dd2 (Plasmodium falciparum, UniProt Q9N623, A220S/I356T/K76T/M74I/N326S/N75E/Q271E/R371I); assay: as above; assay type: cell-based
Procedure, shortened: as §2

PfCRT^Ecu1110 [5] = biological target: T1, PfCRT^Ecu1110; assay: cell-based; assay type: cell-based; details: […]
Procedure, shortened: as §1

PfNT1 = biological target: T3, PfNT1 (Plasmodium falciparum, UniProt Q8IDM6); assay: cell-based; assay type: cell-based; details: for activity at 5000 µM: total [3H]CQ transport
T3 construct: expressed in transfected cells; host or cells: Xenopus laevis oocytes (stage V-VI), cRNA-injected
Procedure, shortened: as §1

PfCRT^Dd2 [6] = biological target: T2, PfCRT^Dd2; assay: cell-based; assay type: cell-based; details: […]; for activity at 45000 µM: [test solute]i = 45 mM (30 mM for some solutes due to solubility)
Procedure, shortened: as §1

PfCRT^3D7 [7] = biological target: T4, PfCRT^3D7 (Plasmodium falciparum, UniProt Q8IBZ9); assay: cell-based; assay type: cell-based
Procedure, shortened: as §1

non-expressing oocytes [8] = assay: cells; assay type: cell-based, Xenopus laevis; details: Xenopus laevis, total [3H]CQ transport; for inhibition at 500 µM: [test solute] = 0.5 mM; for inhibition at 1000 µM: [test solute] = 1 mM; for inhibition at 2000 µM: [test solute] = 2 mM
Procedure, shortened: as §2

PfCRT^3D7 [9] = biological target: T4, PfCRT^3D7; assay: cell-based; assay type: cell-based; details: total [3H]CQ transport; for inhibition at 500 µM: [test solute] = 0.5 mM; for inhibition at 1000 µM: [test solute] = 1 mM; for inhibition at 2000 µM: [test solute] = 2 mM
Procedure, shortened: as §2

PfCRT [10] = assay: Influx of VF-6 via PfCRT into the oocyte, solutes tested as potential co-substrates; assay type: cell-based, Plasmodium falciparum; design: key: X: Compounds that have been tested as potential co-substrates but are not required for influx of VF-6 via PfCRT into the oocyte; details: X marks the solute
[11] = read-out: PfCRT-mediated [3H]CQ transport, cis-inhibition (% PfCRTEcu1110 control)
[12] = read-out: Uptake of [3H]CQ (% PfCRTDd2 control), cis-inhibition, PfCRTEcu1110, SEM
[13] = read-out: Uptake of [3H]CQ (% PfCRTEcu1110 control), cis-inhibition
[14] = read-out: [3H]CQ transport (% PfCRTEcu1110 control), cis-inhibition, PfCRTEcu1110, SEM
[15] = read-out: PfCRT-mediated [3H]CQ transport, cis-inhibition (% PfCRTDd2 control)
[16] = read-out: Uptake of [3H]CQ (% PfCRTDd2 control), cis-inhibition, PfCRTDd2, SEM
[17] = Oocyte, mean ± SEM, SEM, read-out: Uptake of [3H]CQ (% PfCRTDd2 control), cis-inhibition, non-expressing oocytes
[18] = non-expressing oocytes, normalised to the oocyte type control, read-out: Uptake of [3H]CQ (% non-expressing oocyte control), cis-inhibition
[19] = PfCRT3D7 oocytes, normalised to the oocyte type control, read-out: Uptake of [3H]CQ (% PfCRT3D7 control), cis-inhibition
[20] = mean ± SEM, SEM, read-out: Uptake of [3H]CQ (% PfCRTDd2 control), cis-inhibition, PfCRT3D7

T4 sequence (Q8IBZ9 59-398): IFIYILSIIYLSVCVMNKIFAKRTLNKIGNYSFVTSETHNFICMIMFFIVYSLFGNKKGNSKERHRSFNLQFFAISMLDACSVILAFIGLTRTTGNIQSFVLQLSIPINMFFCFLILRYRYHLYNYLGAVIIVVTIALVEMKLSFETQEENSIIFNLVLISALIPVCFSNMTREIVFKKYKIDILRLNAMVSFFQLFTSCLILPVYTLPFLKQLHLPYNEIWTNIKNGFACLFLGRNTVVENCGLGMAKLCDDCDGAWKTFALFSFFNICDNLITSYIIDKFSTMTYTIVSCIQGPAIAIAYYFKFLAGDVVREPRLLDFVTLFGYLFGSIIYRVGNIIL
T3 sequence (Q8IDM6 whole entry): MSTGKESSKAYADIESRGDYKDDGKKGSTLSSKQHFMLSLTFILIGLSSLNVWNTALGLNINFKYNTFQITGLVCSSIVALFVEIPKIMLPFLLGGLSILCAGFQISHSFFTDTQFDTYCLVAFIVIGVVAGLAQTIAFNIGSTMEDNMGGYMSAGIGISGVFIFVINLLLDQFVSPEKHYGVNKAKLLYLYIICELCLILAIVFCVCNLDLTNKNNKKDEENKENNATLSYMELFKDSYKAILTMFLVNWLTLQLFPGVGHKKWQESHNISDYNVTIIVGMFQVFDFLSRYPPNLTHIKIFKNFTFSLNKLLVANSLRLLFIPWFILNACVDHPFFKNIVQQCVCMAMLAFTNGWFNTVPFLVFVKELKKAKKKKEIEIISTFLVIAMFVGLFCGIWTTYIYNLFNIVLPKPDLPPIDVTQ
T1 sequence (Q9N623 whole entry A220S/I356L/K76T/N326D): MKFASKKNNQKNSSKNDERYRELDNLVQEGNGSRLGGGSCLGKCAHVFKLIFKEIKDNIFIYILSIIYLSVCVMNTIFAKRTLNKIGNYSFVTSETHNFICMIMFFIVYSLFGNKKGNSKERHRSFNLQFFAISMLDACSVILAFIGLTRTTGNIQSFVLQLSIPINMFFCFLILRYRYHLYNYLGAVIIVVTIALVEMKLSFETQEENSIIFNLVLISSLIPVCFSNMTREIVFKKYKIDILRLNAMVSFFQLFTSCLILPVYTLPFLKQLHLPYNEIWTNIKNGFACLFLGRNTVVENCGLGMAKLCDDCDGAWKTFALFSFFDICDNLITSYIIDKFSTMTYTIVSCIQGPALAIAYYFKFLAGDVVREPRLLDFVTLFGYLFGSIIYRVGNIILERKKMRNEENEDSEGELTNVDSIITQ
T2 sequence (Q9N623 whole entry A220S/I356T/K76T/M74I/N326S/N75E/Q271E/R371I): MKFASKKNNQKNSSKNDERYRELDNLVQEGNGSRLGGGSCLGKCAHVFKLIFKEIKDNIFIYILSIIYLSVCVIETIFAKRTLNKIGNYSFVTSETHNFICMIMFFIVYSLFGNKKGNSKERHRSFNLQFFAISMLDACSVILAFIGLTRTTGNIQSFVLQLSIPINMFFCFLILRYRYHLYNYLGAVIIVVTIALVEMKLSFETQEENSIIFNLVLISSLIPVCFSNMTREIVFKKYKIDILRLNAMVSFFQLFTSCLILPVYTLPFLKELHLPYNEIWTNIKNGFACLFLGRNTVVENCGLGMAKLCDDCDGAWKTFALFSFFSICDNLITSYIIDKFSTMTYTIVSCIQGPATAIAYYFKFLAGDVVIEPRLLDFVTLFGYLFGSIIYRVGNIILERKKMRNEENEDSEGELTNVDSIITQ

C[C@@H](O)[C@H](N)C(=O)O [L-threonine]
Uptake of [3H]CQ (% non-expressing oocyte control), trans-stimulation (non-expressing oocytes [1]; [test solute]i = 5 mM): 101 ± 3.2 % non-expressing oocyte control | Uptake of [3H]CQ (% non-expressing oocyte control), trans-stimulation (non-expressing oocytes [1]; [test solute]i = 45 mM (30 mM for some solutes due to solubility)): 99 ± 2.4 % non-expressing oocyte control | Uptake of [3H]CQ (% PfCRTDd2 control), trans-stimulation, non-expressing oocytes (non-expressing oocytes [1]; [test solute]i = 5 mM (intracellular)): 2.4 ± 0.08 % PfCRTDd2 control | Uptake of [3H]CQ (% PfCRTDd2 control), trans-stimulation, non-expressing oocytes (non-expressing oocytes [1]; [test solute]i = 45 mM (intracellular; 30 mM for some solutes due to solubility)): 2.8 ± 0.02 % PfCRTDd2 control | Tested as potential co-substrate but not required for influx of VF-6 via PfCRT into the oocyte (PfCRT [2]): X | inhibition at 500 µM (PfCRT^Ecu1110 [3]; [11]): 94 ± 1.1% | inhibition at 1000 µM (PfCRT^Ecu1110 [3]; [11]): 95 ± 1.3% | inhibition at 2000 µM (PfCRT^Ecu1110 [3]; [11]): 94 ± 3.7% | inhibition at 500 µM (PfCRT^Ecu1110 [3]; [12]): 31 ± 1.1% | inhibition at 1000 µM (PfCRT^Ecu1110 [3]; [12]): 32 ± 1.9% | inhibition at 2000 µM (PfCRT^Ecu1110 [3]; [12]): 31 ± 1.3% | inhibition at 500 µM (PfCRT^Ecu1110 [3]; [13]): 96 ± 3.1% | inhibition at 1000 µM (PfCRT^Ecu1110 [3]; [13]): 98 ± 2.4% | inhibition at 2000 µM (PfCRT^Ecu1110 [3]; [13]): 96 ± 2.2% | inhibition at 500 µM (PfCRT^Ecu1110 [3]; [14]): 28 ± 0.6% | inhibition at 1000 µM (PfCRT^Ecu1110 [3]; [14]): 29 ± 0.8% | inhibition at 2000 µM (PfCRT^Ecu1110 [3]; [14]): 28 ± 1.5% | inhibition at 500 µM (PfCRT^Dd2 [4]; [15]): 95 ± 3.6% | inhibition at 2000 µM (PfCRT^Dd2 [4]; [15]): 92 ± 5.6% | inhibition at 500 µM (PfCRT^Dd2 [4]; [16]): 97 ± 2.5% | inhibition at 1000 µM (PfCRT^Dd2 [4]; [16]): 96 ± 3.6% | inhibition at 2000 µM (PfCRT^Dd2 [4]; [16]): 94 ± 3.2% | activity at 5000 µM (PfCRT^Ecu1110 [5]; pH 5.5, read-out: PfCRT-mediated [3H]CQ transport, trans-stimulation (% PfCRTEcu1110 control), [test solute]i = 5 mM (intracellular), PfCRTEcu1110 oocytes, normalised to oocyte type control): 99 ± 3.4% | activity at 5000 µM (PfCRT^Ecu1110 [5]; pH 5.5, read-out: Uptake of [3H]CQ (% PfCRTEcu1110 control), trans-stimulation, PfCRTEcu1110 oocytes, [test solute]i = 5 mM, total [3H]CQ transport, normalised to the oocyte type control): 101 ± 2.5% | activity at 45000 µM (PfCRT^Ecu1110 [5]; pH 5.5, read-out: Uptake of [3H]CQ (% PfCRTEcu1110 control), trans-stimulation, PfCRTEcu1110 oocytes, [test solute]i = 45 mM (30 mM for some solutes due to solubility), total [3H]CQ transport, normalised to the oocyte type control): 99 ± 2% | activity at 5000 µM (PfCRT^Ecu1110 [5]; read-out: Uptake of [3H]CQ (% PfCRTDd2 control), trans-stimulation, PfCRTEcu1110, total [3H]CQ transport, [test solute]i = 5 mM (intracellular), mean ± SEM, SEM): 36 ± 1.9% | activity at 45000 µM (PfCRT^Ecu1110 [5]; read-out: Uptake of [3H]CQ (% PfCRTDd2 control), trans-stimulation, PfCRTEcu1110, total [3H]CQ transport, [test solute]i = 45 mM (intracellular; 30 mM for some solutes due to solubility), mean ± SEM, SEM): 35 ± 1.3% | activity at 5000 µM (PfNT1; PfNT1 oocytes, [test solute]i = 5 mM, normalised to the oocyte type control, read-out: Uptake of [3H]CQ (% PfNT1 control), trans-stimulation): 99 ± 3.5% | activity at 45000 µM (PfNT1; SEM, read-out: Uptake of [3H]CQ (% PfCRTDd2 control), trans-stimulation, PfNT1): 2.6 ± 0.08% | activity at 45000 µM (PfNT1; read-out: Uptake of [3H]CQ (% PfNT1 control), trans-stimulation): 100 ± 2.6% | activity at 5000 µM (PfNT1; [test solute]i = 5 mM (intracellular), mean ± SEM, SEM, read-out: Uptake of [3H]CQ (% PfCRTDd2 control), trans-stimulation, PfNT1): 2.8 ± 0.05% | activity at 5000 µM (PfCRT^Dd2 [6]; pH 5.5, read-out: PfCRT-mediated [3H]CQ transport, trans-stimulation (% PfCRTDd2 control), [test solute]i = 5 mM (intracellular), PfCRTDd2 oocytes, normalised to oocyte type control): 96 ± 3.2% | activity at 5000 µM (PfCRT^Dd2 [6]; pH 5.5, read-out: Uptake of [3H]CQ (% PfCRTDd2 control), trans-stimulation, PfCRTDd2, total [3H]CQ transport, [test solute]i = 5 mM (intracellular), mean ± SEM, SEM): 98 ± 3.2% | activity at 5000 µM (PfCRT^Dd2 [6]; pH 5.5, read-out: Uptake of [3H]CQ (% PfCRTDd2 control), trans-stimulation, PfCRTDd2 oocytes, [test solute]i = 5 mM, total [3H]CQ transport, normalised to the oocyte type control): 98 ± 3.2% | activity at 45000 µM (PfCRT^Dd2 [6]; pH 5.5, read-out: Uptake of [3H]CQ (% PfCRTDd2 control), trans-stimulation, PfCRTDd2 oocytes, total [3H]CQ transport, normalised to the oocyte type control): 99 ± 3.2% | activity at 5000 µM (PfCRT^Dd2 [6]; pH 5.5, read-out: [3H]CQ transport (% PfCRTDd2 control), trans-stimulation, PfCRTDd2, trans-stimulation, [test solute]i = 5 mM (injected), PfCRT-mediated component (background subtracted), mean ± SEM, SEM): 96 ± 3.2% | activity at 45000 µM (PfCRT^Dd2 [6]; pH 5.5, read-out: [3H]CQ transport (% PfCRTDd2 control), trans-stimulation, PfCRTDd2, trans-stimulation, PfCRT-mediated component (background subtracted), mean ± SEM, SEM): 97 ± 3.9% | activity at 5000 µM (PfCRT^3D7 [7]; PfCRT3D7 oocytes, [test solute]i = 5 mM, total [3H]CQ transport, normalised to the oocyte type control, read-out: Uptake of [3H]CQ (% PfCRT3D7 control), trans-stimulation): 99 ± 4.2% | [3H]CQ transport (% PfCRT3D7 control), trans-stimulation, PfCRT3D7 (PfCRT^3D7 [7]; SEM): 0.3 ± 0.01 % PfCRT3D7 control | activity at 5000 µM (PfCRT^3D7 [7]; [test solute]i = 5 mM (intracellular), PfCRT3D7 oocytes, normalised to oocyte type control, read-out: PfCRT-mediated [3H]CQ transport, trans-stimulation (% PfCRT3D7 control)): 97 ± 2.9% | activity at 45000 µM (PfCRT^3D7 [7]; SEM, read-out: Uptake of [3H]CQ (% PfCRTDd2 control), trans-stimulation, PfCRT3D7): 3.3 ± 0.02% | activity at 45000 µM (PfCRT^3D7 [7]; read-out: PfCRT-mediated [3H]CQ transport, trans-stimulation (% PfCRT3D7 control)): 96 ± 3.1% | activity at 45000 µM (PfCRT^3D7 [7]; read-out: Uptake of [3H]CQ (% PfCRT3D7 control), trans-stimulation): 98 ± 2.8% | activity at 5000 µM (PfCRT^3D7 [7]; total [3H]CQ transport, [test solute]i = 5 mM (intracellular), mean ± SEM, SEM, read-out: Uptake of [3H]CQ (% PfCRTDd2 control), trans-stimulation, PfCRT3D7): 3.3 ± 0.1% | inhibition at 500 µM (non-expressing oocytes [8]; [17]): 2.2 ± 0.04% | inhibition at 1000 µM (non-expressing oocytes [8]; [17]): 3.8 ± 0.08% | inhibition at 2000 µM (non-expressing oocytes [8]; [17]): 2.8 ± 0.02% | inhibition at 500 µM (non-expressing oocytes [8]; [18]): 95 ± 5.4% | inhibition at 1000 µM (non-expressing oocytes [8]; [18]): 98 ± 3.6% | inhibition at 2000 µM (non-expressing oocytes [8]; [18]): 100 ± 3.6% | inhibition at 500 µM (PfCRT^3D7 [9]; [19]): 100 ± 4.7% | inhibition at 1000 µM (PfCRT^3D7 [9]; [19]): 100 ± 5.3% | inhibition at 2000 µM (PfCRT^3D7 [9]; [19]): 99 ± 5.3% | inhibition at 500 µM (PfCRT^3D7 [9]; [20]): 2.9 ± 0.03% | inhibition at 1000 µM (PfCRT^3D7 [9]; [20]): 2.8 ± 0.07% | inhibition at 2000 µM (PfCRT^3D7 [9]; [20]): 3.3 ± 0.03% | Compounds that have been tested as potential co-substrates but are not required for influx of VF-6 via PfCRT into the oocyte (PfCRT [10]): X
